Test results from ChEMBL document CHEMBL5046285, “Probing Fluorinated Motifs onto Dual AChE-MAO B Inhibitors: Rational Design, Synthesis, Biological Evaluation, and Early-ADME Studies” (J Med Chem, 2022).
pIC50, pKd, pKi: −log10 of the molar value. ≈ marks a conversion by molar mass, not a printed value. Calls of active or inactive are those of the source. No cut-off for these calls is given here.

Columns and labels:
[1] = Kinetic aqueous solubility of the compound in PBS incubated for 2 hrs under mild shaking at pH 7.4 by UV- vis spectrophotometric analysis; format: physicochemical; settings: read-out: Kinetic_solubility
[2] = 1-Octanol/PBS buffer distribution coefficient, log D of the compound at 1 uM measured after 24 hrs at pH 7.4 by shake flask based HPLC-ES-MS/MS analysis; format: physicochemical
[3] = Chromatographic hydrophobicity index of the compound in ammonium acetate buffer at pH 7.4 by RP-HPLC analysis; format: physicochemical
[4] = Effective permeability of the compound in PBS buffer at pH 7.4 by PAMPA-BBB assay; format: ADME; settings: read-out: Peff
[5] = Apparent permeability across basolateral to apical side in human Caco-2 cells at 10 uM incubated for 60 mins by HPLC-MS/MS method; format: ADME, cell-based
[6] = Apparent permeability across apical to basolateral side in human Caco-2 cells at 10 uM incubated for 60 mins by HPLC-MS/MS method; format: ADME, cell-based
[7] = Efflux ratio of apparent permeability across basolateral to apical side over apical to basolateral side in human Caco-2 cells; format: ADME, cell-based
[8] = Microsomal stability in human liver microsomes assessed as half life at 0.5 uM incubated upto 60 mins in presence of NADPH by LC/MS/MS analysis; format: ADME, Microsome
[9] = Microsomal stability in mouse liver microsomes assessed as half life at 0.5 uM incubated upto 30 mins in presence of NADPH by LC/MS/MS analysis; format: ADME, Microsome
[10] = Intrinsic clearance in human liver microsomes at 0.5 uM incubated upto 60 mins in presence of NADPH measured per mg protein by LC/MS/MS analysis; format: ADME, Microsome; settings: read-out: CLH
[11] = Intrinsic clearance in mouse liver microsomes at 0.5 uM incubated upto 30 mins in presence of NADPH measured per mg protein by LC/MS/MS analysis; format: ADME, Microsome; settings: read-out: CLH
[12] = biological target: Cytochrome P450 3A4 (Homo sapiens, UniProt P08684); test: Inhibition of human recombinant CYP3A4 expressed in baculosomes by fluorescent homogenous assay; format: ADME
[13] = biological target: Cholinesterase (Equus caballus) (UniProt P81908); test: Inhibition of horse serum BChE at 10 uM by Ellman's spectrophotometric assay; format: cell-free
[14] = biological target: T1, Amine oxidase [flavin-containing] B (Homo sapiens, UniProt P27338)
T1 sequence (P27338 whole entry): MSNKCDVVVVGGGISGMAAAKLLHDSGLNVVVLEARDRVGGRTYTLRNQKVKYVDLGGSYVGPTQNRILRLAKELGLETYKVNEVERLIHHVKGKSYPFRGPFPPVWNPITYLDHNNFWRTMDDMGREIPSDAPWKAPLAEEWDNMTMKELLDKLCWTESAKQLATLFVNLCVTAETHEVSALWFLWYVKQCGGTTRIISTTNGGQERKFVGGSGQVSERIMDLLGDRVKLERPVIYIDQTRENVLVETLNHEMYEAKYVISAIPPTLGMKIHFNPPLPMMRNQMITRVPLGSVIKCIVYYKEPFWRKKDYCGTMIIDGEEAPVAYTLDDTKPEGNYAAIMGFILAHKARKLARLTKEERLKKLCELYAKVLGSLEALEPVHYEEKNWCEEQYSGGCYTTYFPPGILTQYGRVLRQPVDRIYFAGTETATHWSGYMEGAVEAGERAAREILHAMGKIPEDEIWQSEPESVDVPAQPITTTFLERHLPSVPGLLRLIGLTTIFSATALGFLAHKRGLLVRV
Description: Inhibition of human recombinant MAO-B expressed in supersomes assessed as inhibition of 4-hydroxyquinoline formation using kynuramine as substrate by spectrofluorimetric analysis

[15] = biological target: T2, Acetylcholinesterase (Homo sapiens, UniProt P22303)
Description: Inhibition of human recombinant AChE by Ellman's spectrophotometric assay

[16] = biological target: T3, MAO-A (Homo sapiens, UniProt P21397); test: in vitro; settings: recombinant MAO-A expressed in supersomes, probe kynuramine
T3 sequence (P21397 whole entry): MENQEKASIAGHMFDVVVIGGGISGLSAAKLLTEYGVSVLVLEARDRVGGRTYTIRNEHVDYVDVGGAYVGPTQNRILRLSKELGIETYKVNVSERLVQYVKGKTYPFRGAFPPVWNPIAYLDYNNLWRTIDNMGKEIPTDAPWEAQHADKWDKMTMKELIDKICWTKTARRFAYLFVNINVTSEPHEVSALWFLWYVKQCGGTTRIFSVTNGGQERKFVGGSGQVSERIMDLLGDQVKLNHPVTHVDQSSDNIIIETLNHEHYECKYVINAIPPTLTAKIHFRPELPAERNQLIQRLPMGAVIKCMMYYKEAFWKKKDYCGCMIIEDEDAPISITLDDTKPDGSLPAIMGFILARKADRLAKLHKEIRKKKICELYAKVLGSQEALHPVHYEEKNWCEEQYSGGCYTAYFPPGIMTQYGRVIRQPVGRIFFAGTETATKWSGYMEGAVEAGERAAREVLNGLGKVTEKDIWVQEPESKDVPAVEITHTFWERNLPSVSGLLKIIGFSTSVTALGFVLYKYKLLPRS

[17] = biological target: Albumin (Homo sapiens, UniProt P02768); test: Binding affinity to human serum albumin assessed as dissociation […] constant by surface plasmon resonance assay; format: ADME, cell-free
[18] = tested on: SH-SY5Y; test: Cytotoxicity against human SH-SY5Y cells assessed as reduction in cell viability at 1 to 100 uM incubated for 4 hrs by CellTiter-Glo luminescence assay; format: toxicity, cell-based; settings: dose 1-100 µM
[19] = tested on: HepG2; test: Cytotoxicity against human HepG2 cells assessed as reduction in cell viability at 1 to 100 uM incubated for 4 hrs by CellTiter-Glo luminescence assay; format: toxicity, cell-based; settings: hepg2, 4 h, dose 1-100 µM
[20] = species: Homo sapiens; test: Selectivity for human recombinant MAO-B expressed in supersomes over human recombinant MAO-A expressed in supersomes
[21] = biological target: T1, Amine oxidase [flavin-containing] B; test: Inhibition of human recombinant MAO-B expressed in supersomes assessed as inhibition of 4-hydroxyquinoline formation using kynuramine as substrate by spectrophotometric method
[22] = Cytotoxicity against human SH-SY5Y cells assessed as reduction in cell viability incubated for 4 hrs by CellTiter-Glo luminescence assay; format: toxicity, cell-based
[23] = Cytotoxicity against human HepG2 cells assessed as reduction in cell viability incubated for 4 hrs by CellTiter-Glo luminescence assay; format: toxicity, cell-based
[24] = biological target: Cholinesterase (Equus caballus, UniProt P81908)
Description: Inhibition of horse serum BChE by Ellman's spectrophotometric assay

[25] = biological target: T1, Amine oxidase [flavin-containing] B; test: Reversible inhibition of human recombinant MAO-B expressed in supersomes using kynuramine as substrate at 10 nM co-incubated with enzyme and measured over 6 hrs by spectrophotometric method; settings: 0.01 µM
[26] = tested on: HepG2; test: Cytotoxicity against human HepG2 cells assessed as reduction in cell viability at 100 uM incubated for 4 hrs by CellTiter-Glo luminescence assay; format: toxicity, cell-based; settings: hepg2, 4 h
[27] = biological target: T2, Acetylcholinesterase; test: Mixed type inhibition of human AChE by Lineweaver-Burk plot analysis
[28] = biological target: T1, Amine oxidase [flavin-containing] B; test: Competitive inhibition of human recombinant MAO-B expressed in supersomes using kynuramine as substrate by Lineweaver-Burk plot analysis
[29] = tested on: SH-SY5Y; test: Cytotoxicity against human SH-SY5Y cells assessed as reduction in cell viability at 100 uM incubated for 4 hrs by CellTiter-Glo luminescence assay; format: toxicity, cell-based
[30] = tested on: SH-SY5Y; test: Neuroprotective activity against H2O2-induced neurotoxicity in human SH-SY5Y cells assessed as increase in cell viability at 1 to 5 uM co-incubated with H2O2 for 24 hrs by MTT assay; format: functional, cell-based; settings: dose 1-5 µM
[31] = tested on: SH-SY5Y; test: Neuroprotection against Amyloid beta-induced cytotoxicity in human SH-SY5Y cells assessed as increase in cell viability at 0.1 to 1 uM co-incubated with Amyloid beta for 24 hrs by MTT assay; format: functional, cell-based; settings: dose 0.1-1 µM
[32] = tested on: SH-SY5Y; test: Neuroprotective activity against NMDA -induced cytotoxicity in human SH-SY5Y cells assessed as increase in cell viability at 0.1 to 5 uM co-incubated with NMDA for 24 hrs by MTT assay; format: functional, cell-based; settings: dose 0.1-5 µM

Sequence of Cytochrome P450 3A4 (P08684 whole entry): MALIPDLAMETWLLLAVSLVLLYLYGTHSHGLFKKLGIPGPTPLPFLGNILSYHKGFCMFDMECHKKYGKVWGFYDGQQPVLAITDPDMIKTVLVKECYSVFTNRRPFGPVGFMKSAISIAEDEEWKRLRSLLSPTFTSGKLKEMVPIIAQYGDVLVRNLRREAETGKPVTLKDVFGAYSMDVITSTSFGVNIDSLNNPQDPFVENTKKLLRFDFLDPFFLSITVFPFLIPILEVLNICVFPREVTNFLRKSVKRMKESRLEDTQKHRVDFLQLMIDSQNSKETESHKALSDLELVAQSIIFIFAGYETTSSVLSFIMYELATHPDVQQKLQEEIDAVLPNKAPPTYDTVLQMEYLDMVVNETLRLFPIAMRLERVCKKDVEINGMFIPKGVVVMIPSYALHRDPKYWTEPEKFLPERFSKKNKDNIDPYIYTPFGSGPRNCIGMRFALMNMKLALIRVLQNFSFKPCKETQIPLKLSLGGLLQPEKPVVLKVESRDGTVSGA
T2 sequence (P22303 whole entry): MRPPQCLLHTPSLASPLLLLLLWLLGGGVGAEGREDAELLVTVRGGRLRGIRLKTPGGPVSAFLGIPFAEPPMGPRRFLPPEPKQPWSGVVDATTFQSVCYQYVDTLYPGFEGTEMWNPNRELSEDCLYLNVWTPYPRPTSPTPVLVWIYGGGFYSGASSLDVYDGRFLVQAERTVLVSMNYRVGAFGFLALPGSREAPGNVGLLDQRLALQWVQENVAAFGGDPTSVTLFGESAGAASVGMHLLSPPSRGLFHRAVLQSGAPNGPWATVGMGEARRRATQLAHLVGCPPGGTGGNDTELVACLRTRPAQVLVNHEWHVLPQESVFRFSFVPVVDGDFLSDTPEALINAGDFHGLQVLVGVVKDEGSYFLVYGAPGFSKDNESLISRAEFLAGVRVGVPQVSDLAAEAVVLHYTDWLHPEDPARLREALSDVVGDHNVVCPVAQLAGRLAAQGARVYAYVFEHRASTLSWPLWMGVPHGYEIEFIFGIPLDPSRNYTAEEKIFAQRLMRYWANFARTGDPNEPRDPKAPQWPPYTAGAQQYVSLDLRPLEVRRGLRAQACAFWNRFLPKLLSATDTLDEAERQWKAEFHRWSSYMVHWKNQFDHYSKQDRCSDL
Sequence of Albumin (P02768 whole entry): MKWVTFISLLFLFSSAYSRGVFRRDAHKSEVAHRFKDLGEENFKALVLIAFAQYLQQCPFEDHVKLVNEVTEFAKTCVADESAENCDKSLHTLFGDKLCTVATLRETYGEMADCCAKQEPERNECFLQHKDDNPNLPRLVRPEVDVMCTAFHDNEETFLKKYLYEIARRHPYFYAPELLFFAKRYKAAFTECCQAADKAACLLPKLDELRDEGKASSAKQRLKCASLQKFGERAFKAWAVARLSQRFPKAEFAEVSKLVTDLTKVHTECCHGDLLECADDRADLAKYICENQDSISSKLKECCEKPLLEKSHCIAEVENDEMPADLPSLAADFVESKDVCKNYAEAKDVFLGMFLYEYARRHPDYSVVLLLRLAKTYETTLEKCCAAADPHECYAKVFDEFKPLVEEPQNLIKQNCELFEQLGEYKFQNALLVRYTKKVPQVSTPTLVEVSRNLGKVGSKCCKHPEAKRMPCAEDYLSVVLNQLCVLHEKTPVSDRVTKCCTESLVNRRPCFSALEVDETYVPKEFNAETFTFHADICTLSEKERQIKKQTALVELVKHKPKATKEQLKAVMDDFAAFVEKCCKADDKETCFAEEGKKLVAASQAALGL
Sequence of Cholinesterase (Equus caballus) (P81908 whole entry): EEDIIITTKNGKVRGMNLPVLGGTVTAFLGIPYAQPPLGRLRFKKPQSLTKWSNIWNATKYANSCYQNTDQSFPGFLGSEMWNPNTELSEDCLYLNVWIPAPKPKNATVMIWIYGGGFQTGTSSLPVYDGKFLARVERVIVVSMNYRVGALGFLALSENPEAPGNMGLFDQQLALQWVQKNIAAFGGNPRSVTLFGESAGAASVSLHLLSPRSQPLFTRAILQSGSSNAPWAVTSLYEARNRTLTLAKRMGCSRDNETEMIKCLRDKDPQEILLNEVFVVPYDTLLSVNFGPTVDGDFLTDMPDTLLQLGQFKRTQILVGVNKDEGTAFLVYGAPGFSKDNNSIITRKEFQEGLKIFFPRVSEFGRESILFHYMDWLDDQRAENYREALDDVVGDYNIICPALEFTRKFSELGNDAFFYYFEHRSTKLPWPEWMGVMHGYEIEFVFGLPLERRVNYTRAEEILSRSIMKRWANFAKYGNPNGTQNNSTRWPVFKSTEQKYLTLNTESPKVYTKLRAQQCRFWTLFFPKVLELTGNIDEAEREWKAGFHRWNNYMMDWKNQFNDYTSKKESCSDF
Sequence of Cholinesterase (P81908 whole entry): as above

Structure (SMILES)	solubility kinetic at 2 h [1] [µM]	logD at 24 h, 1 µM [2]	CHI [3]	Papp [4] [×10⁻⁶ cm/s]	Papp B→A at 1 h, 10 µM [5] [×10⁻⁶ cm/s]	Papp A→B at 1 h, 10 µM [6] [×10⁻⁶ cm/s]	efflux ratio [7]	half-life at 0.5 µM [8] [min]	half-life at 0.5 µM [9] [min]	microsomal CLint at 0.5 µM [10] [µL/min/mg]	microsomal CLint at 0.5 µM [11] [µL/min/mg]	pIC50 [12]	inhibition [13] [%]	pIC50 [14]	pIC50 [15]	inhibition at 10 µM [16] [%]	pKd [17]	Activity [18]	Activity [19]	Selectivity Index [20]	also measured
Cc1c(C)c2ccc(OCC3CCN(CCCC(F)F)CC3)cc2oc1=O	448 (≈ 170 µg/mL)	2.34	73.4	10.8	16	17	1	98.9	11.9	14.1	116	6.10	8	6.28	5.92	40	–	–	–	–	–
Cc1c(C)c2ccc(OCC3CCN(CCCO)CC3)cc2oc1=O	> 500	0.86	47.3	6	22	19	1.2	> 120	47.2	< 11.5	29.5	< 5.00	–	–	–	50	4.50	Non-Toxic	Non-Toxic	–	–
Cc1c(C)c2ccc(OCC3CCCN(CCCO)C3)cc2oc1=O (racemic)	> 500	1.15	48.8	7.2	–	–	–	–	92.4	–	15.1	–	–	–	5.96	–	–	Non-Toxic	Non-Toxic	–	–
CN(Cc1ccc(COc2ccc3c(CO)cc(=O)oc3c2)cc1)Cc1cccc(F)c1	2.4 (≈ 1.04 µg/mL)	4.29	> 100	–	–	–	–	–	36.9	–	37.7	5.46	–	8.00	6.48	47	–	–	–	> 1000	inhibition (INH) [21]: Active; IC50 at 4 h [22]: 40 µM; IC50 at 4 h [23]: 40 µM; pIC50 [24]: 5.96
C[C@H](NCc1ccc(OCc2cccc(F)c2)cc1)C(N)=O [SAFINAMIDE]	–	–	–	–	–	–	–	–	–	–	–	–	–	–	–	–	–	–	–	–	inhibition (INH) [25]: Active
CN(CCCC(F)F)Cc1ccc(COc2ccc3c(CO)cc(=O)oc3c2)cc1	201 (≈ 83.9 µg/mL)	2.48	76.4	> 14	16	25	0.6	34.9	25	39.8	55.6	5.00	34	8.09	6.26	34	4.95	–	–	> 1250	Activity [26]: Non-Toxic; pKi [27]: 5.70; pKi [28]: 7.89; Activity [29]: Non-Toxic; Activity [30]: Active; Activity [31]: Active; Activity [32]: Active; inhibition (INH) [21]: Active; inhibition (INH) [25]: Active
